Values after ≈ are worked out from the molar mass of the structure shown. Read-outs that look alike come from different tables or passages of the source.
Tests used:
[1] = DMSO solubility; assay type: physicochemical
[2] = molecular target: T1, Recombinant BTK(C481S) (Homo sapiens, UniProt Q06187, C481S); assay: BTK C481S HTRF kinase assay; assay type: biochemical; details: 30 min pre-incubation, 120 min reaction
T1 construct: purchased SignalChem
Experimental: [The procedure below names another variant; the source lists this variant under the same test.] Recombinant BTK wild type (BTK WT) was purchased from Thermo fisher.
In brief, recombinant kinases were pre-incubated in the presence or absence of compound at room temperature for 30 minutes. The reaction was initiated by the addition of the ATP and substrate peptide which could be phosphorylated by kinases in the reaction. After 120 minutes incubation, the reaction was stopped by the addition of the detection reagent mix containing EDTA.

[3] = In vitro human hepatocytes clearance assay; assay type: in vitro ADME
Experimental: (§1) In Vitro Rat/Human Hepatocytes Clearance Assay
(§2) Rat hepatocytes in male gender and human hepatocytes in mixed gender were obtained from commercial vendors (e.g., BioreclamationIVT) and stored at −150° C. prior to use. 10 mM stock solutions of tested compounds were prepared in DMSO. Thawing medium and supplement incubation medium (serum-free) were placed in a 37° C. water bath for at least 15 minutes prior to use. Stock solutions were diluted to 100 μM by combining 198 μL acetonitrile and 2 μL of 10 mM stock solution.
(§3) Vials of cryopreserved hepatocytes were removed from storage, ensured that vials remain at cryogenic temperatures. The vials were thawed in a 37° C. water bath with gently shaking. Vials were kept in a water bath until all ice crystals had dissolved and were no longer visible. Vials were sprayed with 70% ethanol before being transferred to a biosafety cabinet. And then the contents were poured into the 50 mL thawing medium conical tube. Vials were centrifuged at 100 g for 10 minutes at room temperature. Thawing medium was aspirated and hepatocytes were resuspended with serum-free incubation medium to yield ^˜1.5×10^6 cells/mL.
(§4) Cell viability and density were counted using a Trypan Blue exclusion, and then cells were diluted with serum-free incubation medium to a working cell density of 1×10^6 viable cells/ml. A portion of the hepatocytes at 1×10^6 viable cells/mL was boiled for 10 min prior to adding to the plate as negative control to eliminate the enzymatic activity so that little or no substrate turnover should be observed. The inactivated hepatocytes were used to prepare negative samples, which were used to exclude the misleading factor that resulted from instability of chemical itself.
(§5) Aliquots of 247.5 μL hepatocytes were dispensed into each well of a 96-well non-coated plate. The plate was placed in the incubator on an orbital shaker for approximately 10 minutes. Aliquots of 2.5 μL of the 100 μM test compounds were added into respective wells of the non-coated 96-well plate to start the reaction. This assay was performed in duplicate. The plate was incubated in the incubator on an orbital shaker for the designed time points. 20 μL of contents were transferred and mixed with 6 volumes (120 μL) of cold acetonitrile with internal standard to terminate the reaction at time points of 5, 15, 30, 45, 60, 80 and 100 minutes. Samples were centrifuges for 20 minutes at 4000 g and aliquots of 100 μl of the supernatants were used for LC-MS/MS analysis for measurement of test compounds.
(§6) In vitro hepatocyte clearance was estimated based on determination of elimination half-life (T1/2) of compounds disappearance from their initial concentrations. Peak area ratios of each compound (test or control) to IS was calculated. Ln (% Control) versus Incubation Time (min) curve was plotted, and the slope of a linear fitting line was calculated. Drug elimination rate constant k (min-1), T1/2 (min), and in vitro intrinsic clearance CLint (μL/min/E6) was calculated according to the following equations: k=−slope T1/2=0.693/k CLint=k/Chep • Where Chep (cells×μL-1) is the cell concentration in the incubation system. Procedure for Log D Determination

[4] = In vitro rat hepatocytes clearance assay; assay type: in vitro ADME
Experimental: as §1, §2, §3, §4, §5, §6

[5] = molecular target: T2, p-BTK (Phospho-Btk Tyr223) in TMD-8 cells (Homo sapiens, UniProt Q06187); assay: TMD8 cell line p-BTK Elisa assay; assay type: cell-based; details: for Maximal Inhibition Level: p-BTK ELISA; for IC50: pervanadate 100 μM, Tyr223 ELISA
T2 construct: endogenous in cells; host or cells: TMD-8
Experimental: The test compounds were added to the cells and cells were incubated for 0.5 hour at 37° C., 5% CO2. Then pervanadate solution was added to the cells to make a final concentration of 100 μM, and cells were incubated for a further 1 hour at 37° C., 5% CO2. […] The plate was read on a Multiscan Spectrum reader set to 450 nm wavelengths.

[6] = Log D determination (octanol/phosphate buffer); assay type: physicochemical; details: 25° C.
Experimental: 10 μL of working solution of each cassette is placed in order into respective 96-well rack position (Log D plate). Add 500 μL of saturated octanol into each vial of the above cap-less Log D plate followed by the addition of 500 μL of saturated phosphate buffer. Seal with a moulded PTFE/SIL 96-Well Plate Cover.
The samples are centrifuged at 4,000 rpm at 25° C. for 30 minutes to separate the phases. Pipette and syringe are used to pipette about 100 μL from the octanol and buffer phases to a new 96-well plate, respectively.
5 μL of octanol sample is transferred to a new 96-well plate, followed by addition of 495 μL of a mixture of H2O and acetonitrile containing internal standard (1:1) as 100 fold octanol samples. Vortex for 5 minutes at 1,000 rpm.
50 μL of 100 fold samples are transferred to new 96-well plate, followed by addition of 450 μL of a mixture of H2O and acetonitrile containing internal standard (1:1) as 1,000 fold octanol samples. Vortex for 5 minutes at 1,000 rpm.
The 1,000 folds octanol samples are serially diluted into 10,000, 100,000 and 1,000,000 folds with a mixture of H2O and acetonitrile containing internal standard (1:1).
50 μL of buffer samples are transferred to new 96-well plate, followed by addition of 450 μL of a mixture of H2O and acetonitrile containing internal standard (1:1) as 10 folds buffer samples. Vortex for 5 minutes at 1,000 rpm.
The 10 folds buffer samples are serially diluted into 100, 1,000 and 10,000 folds with a mixture of H2O and acetonitrile containing internal standard (1:1). The samples are evaluated by LC/MS/MS analysis. All compounds are tested in singlicate.
All calculations are carried out using Microsoft Excel. The concentrations of test compound in octanol/buffer solution are evaluated by LC/MS/MS. Calculate the Log D value of the test compound as follows:
[formula] DF means the dilution factor. Procedure for Protein Binding Measurements in Human Plasma by Using Equilibrium Dialysis

T2 sequence (Q06187 whole entry): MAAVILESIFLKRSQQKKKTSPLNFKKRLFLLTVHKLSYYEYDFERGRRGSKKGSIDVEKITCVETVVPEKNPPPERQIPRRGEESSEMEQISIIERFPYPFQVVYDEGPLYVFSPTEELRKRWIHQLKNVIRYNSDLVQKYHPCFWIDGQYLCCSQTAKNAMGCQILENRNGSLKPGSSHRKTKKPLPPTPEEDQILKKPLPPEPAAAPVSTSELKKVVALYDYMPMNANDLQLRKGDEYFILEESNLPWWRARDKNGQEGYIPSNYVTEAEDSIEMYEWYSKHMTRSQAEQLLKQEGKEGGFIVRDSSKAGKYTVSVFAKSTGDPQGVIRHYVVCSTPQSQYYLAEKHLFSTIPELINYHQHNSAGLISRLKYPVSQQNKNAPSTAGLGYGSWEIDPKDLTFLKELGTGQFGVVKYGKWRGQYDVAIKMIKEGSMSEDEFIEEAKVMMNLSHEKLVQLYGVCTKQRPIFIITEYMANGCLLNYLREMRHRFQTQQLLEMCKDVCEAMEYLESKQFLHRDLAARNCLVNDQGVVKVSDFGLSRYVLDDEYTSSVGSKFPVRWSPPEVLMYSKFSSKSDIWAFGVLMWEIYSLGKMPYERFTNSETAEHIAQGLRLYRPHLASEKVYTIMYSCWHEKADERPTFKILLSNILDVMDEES
T1 sequence (Q06187 whole entry C481S): as the sequence (Q06187 whole entry) above, with C481S counted along it

Compound	solubility [1]	IC50 [2]	Human Hep Clint [3]	Rat Hep Clint [4]	Maximal Inhibition Level [5]	IC50 [5]	logD at 2 h [6]	logD [6]	solubility ([1]; kinetic from dmso stock)
Nc1nccn2c(C3CCC(CO)OC3)nc(-c3ccc(Oc4ccccc4)c(F)c3F)c12 (single isomer, unassigned) [Compound 4, (5-(8-amino-1-(2,3-difluoro-4-phenoxyphenyl)imidazo[1,5-a]pyrazin-3-yl)tetrahydro-2H-pyran-2-yl)methanol]	–	0.61 nM	5.6 μL/min/10∧6 cells	7.2 μL/min/10∧6 cells	97.4%	30.7 nM	3.1	–	63.1 µM (≈ 28.6 µg/mL)
Nc1nccn2c(C3CCC(CO)OC3)nc(-c3ccc(Oc4ccccc4)c(F)c3F)c12 (single isomer, unassigned) [Compound 5, (5-(8-amino-1-(2,3-difluoro-4-phenoxyphenyl)imidazo[1,5-a]pyrazin-3-yl)tetrahydro-2H-pyran-2-yl)methanol]	61.9 µM (≈ 28 µg/mL)	5.42 nM	9.0 μL/min/10∧6 cells	9.0 μL/min/10∧6 cells	95.8%	48.7 nM	–	2.89	–
Nc1nccn2c(C3CCC(CO)OC3)nc(-c3ccc(Oc4cccc(F)c4F)cc3)c12 (single isomer, unassigned) [Compound 6, (5-(8-amino-1-(4-(2,3-difluorophenoxy)phenyl)imidazo[1,5-a]pyrazin-3-yl)tetrahydro-2H-pyran-2-yl)methanol]	–	0.42 nM	2.1 μL/min/10∧6 cells	8.2 μL/min/10∧6 cells	98.8%	26.2 nM	3.28	–	43.9 µM (≈ 19.9 µg/mL)
Nc1nccn2c(C3CCC(CO)OC3)nc(-c3ccc(Oc4cccc(F)c4F)cc3)c12 (single isomer, unassigned) [Compound 7, (5-(8-amino-1-(4-(2,3-difluorophenoxy)phenyl)imidazo[1,5-a]pyrazin-3-yl)tetrahydro-2H-pyran-2-yl)methanol]	45.8 µM (≈ 20.7 µg/mL)	1.53 nM	3.3 μL/min/10∧6 cells	4.9 μL/min/10∧6 cells	97.9%	138 nM	–	3.19	–
Nc1nccn2c(C3CCC(CO)OC3)nc(-c3ccc(Oc4ccccc4)cc3)c12 (centres unmarked) [Compound 1, (5-(8-amino-1-(4-phenoxyphenyl)imidazo[1,5-a]pyrazin-3-yl)tetrahydro-2H-pyran-2-yl)methanol]	–	1.06 nM	28.9 μL/min/10∧6 cells	12.4 μL/min/10∧6 cells	97.9%	18.9 nM	3.14	–	51.3 µM (≈ 21.4 µg/mL)

Other lines, results leading:

solubility [1]	IC50 [2]	Human Hep Clint [3]	Rat Hep Clint [4]	Maximal Inhibition Level [5]	IC50 [5]	logD at 2 h [6]	logD [6]	solubility ([1]; kinetic from dmso stock)	Compound
15.1 µM (≈ 6.56 µg/mL)	0.66 nM	4.6 μL/min/10∧6 cells	6.1 μL/min/10∧6 cells	98.4%	29.1 nM	3.01	–	–	Nc1nccn2c(C3CCC(CO)OC3)nc(-c3ccc(Oc4ccccc4)cc3F)c12 (single isomer, unassigned) [Compound 2, Trans-(5-(8-amino-1-(2-fluoro-4-phenoxyphenyl)imidazo[1,5-a]pyrazin-3-yl)tetrahydro-2H-pyran-2-yl)methanol]
34.1 µM (≈ 14.8 µg/mL)	6.59 nM	12.9 μL/min/10∧6 cells	8.8 μL/min/10∧6 cells	96.2%	78.4 nM	–	2.88	–	Nc1nccn2c(C3CCC(CO)OC3)nc(-c3ccc(Oc4ccccc4)cc3F)c12 (single isomer, unassigned) [Compound 3, Trans-(5-(8-amino-1-(2-fluoro-4-phenoxyphenyl)imidazo[1,5-a]pyrazin-3-yl)tetrahydro-2H-pyran-2-yl)methanol]
21.0 µM (≈ 9.14 µg/mL)	2.8 nM	6.1 μL/min/10∧6 cells	48.5 μL/min/10∧6 cells	100.9%	42.1 nM	3.1	–	–	Nc1ncnn2c(C3CCC(CO)OC3)nc(-c3ccc(Oc4ccccc4)cc3F)c12 (single isomer, unassigned) [Compound 8, (5-(4-amino-5-(2-fluoro-4-phenoxyphenyl)imidazo[5,1-f][1,2,4]triazin-7-yl)tetrahydro-2H-pyran-2-yl)methanol]
20.3 µM (≈ 8.84 µg/mL)	6.42 nM	5.9 μL/min/10∧6 cells	27.2 μL/min/10∧6 cells	107.7%	124 nM	–	3.00	–	Nc1ncnn2c(C3CCC(CO)OC3)nc(-c3ccc(Oc4ccccc4)cc3F)c12 (single isomer, unassigned) [Compound 9, (5-(4-amino-5-(2-fluoro-4-phenoxyphenyl)imidazo[1,5-a][1,2,4]triazin-7-yl)tetrahydro-2H-pyran-2-yl)methanol]
20.5 µM (≈ 8.93 µg/mL)	0.95 nM	1.7 μL/min/10∧6 cells	17.1 μL/min/10∧6 cells	98.5%	29 nM	–	3.07	–	Nc1ncnn2c(C3CCC(CO)OC3)nc(-c3ccc(Oc4ccccc4)cc3F)c12 (single isomer, unassigned) [Compound 10, Trans-(5-(4-amino-5-(2-fluoro-4-phenoxyphenyl)imidazo[5,1-f][1,2,4]triazin-7-yl)tetrahydro-2H-pyran-2-yl)methanol]
<1.6 µM	5.03 nM	3.6 μL/min/10∧6 cells	11.7 μL/min/10∧6 cells	99.3%	34.7 nM	–	3.09	–	Nc1ncnn2c(C3CCC(CO)OC3)nc(-c3ccc(Oc4ccccc4)cc3F)c12 (single isomer, unassigned) [Compound 11, Trans-(5-(4-amino-5-(2-fluoro-4-phenoxyphenyl)imidazo[5,1-f][1,2,4]triazin-7-yl)tetrahydro-2H-pyran-2-yl)methanol]
